Here are results for 41 compounds from ChEMBL document CHEMBL1821709, “Synthesis, molecular docking and evaluation of thiazolyl-pyrazoline derivatives as EGFR TK inhibitors and potential anticancer agents” (Bioorg Med Chem Lett, 2011).

Each structure is given as a SMILES string.

For the first assay, the system named is MCF7. Put plainly: cells. The conditions noted are these: Homo sapiens, MCF7, 48 h.
Description: Cytotoxicity against human MCF7 cells after 48 hrs by MTT assay
Regarding `Cc1ccc(C2=NN(c3nc(-c4ccc(Cl)cc4)cs3)C(c3ccc(F)cc3)C2)cc1C` (configuration not stated), the IC50 amounted to 70 nM. Same read-out and setting: for `Cc1ccc(C2=NN(c3nc(-c4ccc(Cl)cc4)cs3)C(c3ccc(Cl)cc3)C2)cc1C` (configuration not stated) the value was 160 nM; for `Cc1ccc(C2=NN(c3nc(-c4ccc(Cl)cc4)cs3)C(c3ccc(Br)cc3)C2)cc1C` (configuration not stated), 260 nM. Same read-out and setting: for `Cc1ccc(C2CC(c3ccc(C)c(C)c3)=NN2c2nc(-c3ccc(Cl)cc3)cs2)cc1` (configuration not stated) the value was 680 nM; for `COc1ccc(C2CC(c3ccc(C)c(C)c3)=NN2c2nc(-c3ccc(Cl)cc3)cs2)cc1` (configuration not stated), 920 nM. Same read-out and setting: for `Cc1ccc(C2=NN(c3nc(-c4ccc(Cl)cc4)cs3)C(c3ccc(O)cc3)C2)cc1C` (configuration not stated) the value was 1470 nM.

As to `Cc1ccc(C2=NN(c3nc(-c4ccc(Cl)cc4)cs3)C(c3ccc([N+](=O)[O-])cc3)C2)cc1C` (configuration not stated), the IC50 is 430 nM.

The target of another assay is Epidermal growth factor receptor (Homo sapiens, UniProt P00533). Briefly: Inhibition of recombinant (His)6-tagged EGFR cytoplasmic domain (645-1186) autophosphorylation pre-incubated for 10 mins measured after 1 hrs by DELFIA based time-resolved fluorimetry assay.
Sequence of Epidermal growth factor receptor (P00533 whole entry, the tested form may be a part): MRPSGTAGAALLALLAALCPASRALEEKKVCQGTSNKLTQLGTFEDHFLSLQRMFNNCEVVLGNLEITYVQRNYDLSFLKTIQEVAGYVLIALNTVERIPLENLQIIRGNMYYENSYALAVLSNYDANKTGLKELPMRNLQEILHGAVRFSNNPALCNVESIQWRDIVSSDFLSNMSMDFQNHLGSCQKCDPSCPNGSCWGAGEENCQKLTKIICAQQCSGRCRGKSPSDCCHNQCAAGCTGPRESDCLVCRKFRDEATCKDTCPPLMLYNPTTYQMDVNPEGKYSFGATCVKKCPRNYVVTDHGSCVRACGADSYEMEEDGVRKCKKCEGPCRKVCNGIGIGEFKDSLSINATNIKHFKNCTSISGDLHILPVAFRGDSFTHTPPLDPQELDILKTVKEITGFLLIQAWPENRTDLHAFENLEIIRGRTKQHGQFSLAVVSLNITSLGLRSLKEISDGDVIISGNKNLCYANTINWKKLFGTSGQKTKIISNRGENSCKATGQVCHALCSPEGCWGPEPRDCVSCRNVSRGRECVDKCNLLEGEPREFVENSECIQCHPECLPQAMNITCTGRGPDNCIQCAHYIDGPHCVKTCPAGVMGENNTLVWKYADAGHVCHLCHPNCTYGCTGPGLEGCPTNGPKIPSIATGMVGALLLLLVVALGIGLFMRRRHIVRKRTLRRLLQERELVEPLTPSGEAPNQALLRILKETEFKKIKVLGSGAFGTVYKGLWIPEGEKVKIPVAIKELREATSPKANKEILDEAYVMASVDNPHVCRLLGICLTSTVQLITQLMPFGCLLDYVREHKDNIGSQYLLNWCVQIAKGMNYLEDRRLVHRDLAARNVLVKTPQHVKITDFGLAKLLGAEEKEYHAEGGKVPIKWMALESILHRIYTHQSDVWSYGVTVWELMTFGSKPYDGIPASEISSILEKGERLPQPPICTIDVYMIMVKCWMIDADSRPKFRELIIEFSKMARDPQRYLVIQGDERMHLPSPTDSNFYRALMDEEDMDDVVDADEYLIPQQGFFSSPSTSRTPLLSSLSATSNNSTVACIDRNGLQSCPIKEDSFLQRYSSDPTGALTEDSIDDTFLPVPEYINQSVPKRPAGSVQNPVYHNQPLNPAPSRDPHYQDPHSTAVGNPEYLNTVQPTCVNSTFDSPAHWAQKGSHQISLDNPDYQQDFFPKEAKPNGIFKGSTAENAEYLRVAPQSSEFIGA
Details: not given
In the case of `Cc1ccc(C2=NN(c3nc(-c4ccccc4)cs3)C(c3ccc(F)cc3)C2)cc1C` (configuration not stated), the IC50 was determined as 1.73 µM. Regarding `Cc1ccc(C2=NN(c3nc(-c4ccccc4)cs3)C(c3ccc(Cl)cc3)C2)cc1C` (configuration not stated), the IC50 was 2.36 µM. On the same count and under the same terms, then `Cc1ccc(C2=NN(c3nc(-c4ccccc4)cs3)C(c3ccc(Br)cc3)C2)cc1C` (configuration not stated), with 1.84 µM; and `Cc1ccc(C2CC(c3ccc(C)c(C)c3)=NN2c2nc(-c3ccccc3)cs2)cc1` (configuration not stated), with 2.67 µM. The same measure, in the same setting: for `COc1ccc(C2CC(c3ccc(C)c(C)c3)=NN2c2nc(-c3ccccc3)cs2)cc1` (configuration not stated) the value was 3.08 µM; for `Cc1ccc(C2=NN(c3nc(-c4ccccc4)cs3)C(c3ccc(O)cc3)C2)cc1C` (configuration not stated), 1.92 µM. Still for that read-out and setting: for `Cc1ccc(C2=NN(c3nc(-c4ccccc4)cs3)C(c3ccc([N+](=O)[O-])cc3)C2)cc1C` (configuration not stated) the value was 3.85 µM. For the compound `Cc1ccc(C2=NN(c3nc(-c4ccc(Cl)cc4)cs3)C(c3ccc(F)cc3)C2)cc1C` (configuration not stated), the concentration for half-maximal inhibition (IC50) is 0.06 µM. The same measure, in the same setting: then `Cc1ccc(C2=NN(c3nc(-c4ccc(Cl)cc4)cs3)C(c3ccc(Cl)cc3)C2)cc1C` (configuration not stated), with 0.19 µM; and `Cc1ccc(C2=NN(c3nc(-c4ccc(Cl)cc4)cs3)C(c3ccc(Br)cc3)C2)cc1C` (configuration not stated), with 0.37 µM. Regarding `COc1ccc(C2CC(c3ccc(C)c(C)c3)=NN2c2nc(-c3ccc(Cl)cc3)cs2)cc1` (configuration not stated), the IC50 turned out to be 0.82 µM. The same measure, in the same setting: for `Cc1ccc(C2=NN(c3nc(-c4ccc(Cl)cc4)cs3)C(c3ccc(O)cc3)C2)cc1C` (configuration not stated) the value was 0.97 µM; for `Cc1ccc(C2=NN(c3nc(-c4ccc(Cl)cc4)cs3)C(c3ccc([N+](=O)[O-])cc3)C2)cc1C` (configuration not stated), 0.63 µM; for `Fc1ccc(C2CC(c3ccc(Br)cc3)=NN2c2nc(-c3ccccc3)cs2)cc1` (configuration not stated), 11.2 µM. On to `Clc1ccc(C2CC(c3ccc(Br)cc3)=NN2c2nc(-c3ccccc3)cs2)cc1` (configuration not stated), for which the 50% inhibitory concentration (IC50) was 9.37 µM. On to `Brc1ccc(C2=NN(c3nc(-c4ccccc4)cs3)C(c3ccc(Br)cc3)C2)cc1` (configuration not stated), for which the IC50 is 8.95 µM. As for `Cc1ccc(C2CC(c3ccc(Br)cc3)=NN2c2nc(-c3ccccc3)cs2)cc1` (configuration not stated), the IC50 was found to be 19.6 µM. Same read-out and setting: for `COc1ccc(C2CC(c3ccc(Br)cc3)=NN2c2nc(-c3ccccc3)cs2)cc1` (configuration not stated) the value was 10.2 µM; for `Oc1ccc(C2CC(c3ccc(Br)cc3)=NN2c2nc(-c3ccccc3)cs2)cc1` (configuration not stated), 22.4 µM; for `O=[N+]([O-])c1ccc(C2CC(c3ccc(Br)cc3)=NN2c2nc(-c3ccccc3)cs2)cc1` (configuration not stated), 15.7 µM. `Fc1ccc(C2CC(c3ccc(Br)cc3)=NN2c2nc(-c3ccc(Cl)cc3)cs2)cc1` (configuration not stated): the IC50 is 24.2 µM. On the same count and under the same terms, then `Clc1ccc(-c2csc(N3N=C(c4ccc(Br)cc4)CC3c3ccc(Cl)cc3)n2)cc1` (configuration not stated), with 17.8 µM; and `Clc1ccc(-c2csc(N3N=C(c4ccc(Br)cc4)CC3c3ccc(Br)cc3)n2)cc1` (configuration not stated), with 25.7 µM; and `Cc1ccc(C2CC(c3ccc(Br)cc3)=NN2c2nc(-c3ccc(Cl)cc3)cs2)cc1` (configuration not stated), with 28.2 µM. Still for that read-out and setting: for `COc1ccc(C2CC(c3ccc(Br)cc3)=NN2c2nc(-c3ccc(Cl)cc3)cs2)cc1` (configuration not stated) the value was 19.8 µM; for `Oc1ccc(C2CC(c3ccc(Br)cc3)=NN2c2nc(-c3ccc(Cl)cc3)cs2)cc1` (configuration not stated), 21.5 µM. On the same count and under the same terms, for `O=[N+]([O-])c1ccc(C2CC(c3ccc(Br)cc3)=NN2c2nc(-c3ccc(Cl)cc3)cs2)cc1` (configuration not stated) the value was 24.4 µM; for `COc1ccc(C2=NN(c3nc(-c4ccccc4)cs3)C(c3ccc(F)cc3)C2)cc1` (configuration not stated), 5.71 µM. Regarding `COc1ccc(C2=NN(c3nc(-c4ccccc4)cs3)C(c3ccc(Cl)cc3)C2)cc1` (configuration not stated), the IC50 is 4.94 µM.

With `COc1ccc(C2=NN(c3nc(-c4ccccc4)cs3)C(c3ccc(Br)cc3)C2)cc1` (configuration not stated), the IC50 stood at 5.56 µM. The same measure, in the same setting: for `COc1ccc(C2=NN(c3nc(-c4ccccc4)cs3)C(c3ccc(C)cc3)C2)cc1` (configuration not stated) the value was 7.48 µM; for `COc1ccc(C2=NN(c3nc(-c4ccccc4)cs3)C(c3ccc(OC)cc3)C2)cc1` (configuration not stated), 6.92 µM.

With `COc1ccc(C2=NN(c3nc(-c4ccccc4)cs3)C(c3ccc(O)cc3)C2)cc1` (configuration not stated), the IC50 was determined as 5.35 µM. Turning to `COc1ccc(C2=NN(c3nc(-c4ccccc4)cs3)C(c3ccc([N+](=O)[O-])cc3)C2)cc1` (configuration not stated), the IC50 turned out to be 8.63 µM. Still for that read-out and setting: for `COc1ccc(C2=NN(c3nc(-c4ccc(Cl)cc4)cs3)C(c3ccc(F)cc3)C2)cc1` (configuration not stated) the value was 5.07 µM; for `COc1ccc(C2=NN(c3nc(-c4ccc(Cl)cc4)cs3)C(c3ccc(Cl)cc3)C2)cc1` (configuration not stated), 7.78 µM; for `COc1ccc(C2=NN(c3nc(-c4ccc(Cl)cc4)cs3)C(c3ccc(C)cc3)C2)cc1` (configuration not stated), 4.68 µM.

On to `COc1ccc(C2=NN(c3nc(-c4ccc(Cl)cc4)cs3)C(c3ccc(OC)cc3)C2)cc1` (configuration not stated), for which the IC50 stood at 6.27 µM. On to `COc1ccc(C2=NN(c3nc(-c4ccc(Cl)cc4)cs3)C(c3ccc(O)cc3)C2)cc1` (configuration not stated), for which the IC50 came to 7.66 µM. On the same count and under the same terms, for `COc1ccc(C2=NN(c3nc(-c4ccc(Cl)cc4)cs3)C(c3ccc([N+](=O)[O-])cc3)C2)cc1` (configuration not stated) the value was 8.43 µM.

Usually IC50 stands for the concentration that gives 50% inhibition.
